The target in experiment [1] is C. albicans CYP51F1 wild-type (Candida albicans, UniProt P10613). Kind of experiment: Spectral binding titration of purified CYP51F1 wild type.
Experiment [2] has as its target C. albicans CYP51F1 F105L mutant (Candida albicans, UniProt P10613, F105L). Kind of experiment: Spectral binding titration of purified CYP51F1 F105L mutant.
Experiment [3] deals with C. albicans CYP51F1 D116E mutant (Candida albicans, UniProt P10613, D116E). Kind of experiment: Spectral binding titration of purified CYP51F1 D116E mutant.
Experiment [4] concerns the target C. albicans CYP51F1 Y132H mutant (Candida albicans, UniProt P10613, Y132H). Briefly: Spectral binding titration of purified CYP51F1 Y132H mutant.
Experiment [5] concerns the target C. albicans CYP51F1 R467K mutant (Candida albicans, UniProt P10613, R467K). Kind of experiment: Spectral binding titration of purified CYP51F1 R467K mutant.

Data on five molecules can be found in PMC3079055 (Archives of biochemistry and biophysics, 2011).

A word on the Kd: it is the equilibrium constant for the complex coming apart. Take `Clc1ccc(COC(Cn2ccnc2)c2ccc(Cl)cc2Cl)cc1` (centres unmarked) [Econazole, econazole]: the dissociation constant (Kd) in experiment [1] was determined as 0.2 ± 0.04 µM; in experiment [2], 0.1 ± 0.03 µM; in experiment [3], 0.14 ± 0.03 µM; in experiment [4], 0.42 ± 0.06 µM; in experiment [5], 0.13 ± 0.03 µM.

With `OC(Cn1cncn1)(Cn1cncn1)c1ccc(F)cc1F` [Fluconazole, fluconazole], the dissociation constant (Kd) in experiment [1] was determined as 0.06 ± 0.01 µM; in experiment [2], 0.02 ± 0.01 µM; in experiment [3], 0.03 ± 0.01 µM; in experiment [4] it was 0.15 ± 0.06 µM; in experiment [5], 0.06 ± 0.01 µM.

Turning to `CCC(C)n1ncn(-c2ccc(N3CCN(c4ccc(OCC5COC(Cn6cncn6)(c6ccc(Cl)cc6Cl)O5)cc4)CC3)cc2)c1=O` (centres unmarked) [Itraconazole, itraconazole], the Kd in experiment [1] stood at 0.19 ± 0.06 µM; in experiment [2], 0.16 ± 0.04 µM; in experiment [3], 0.15 ± 0.03 µM; in experiment [5] it was 0.18 ± 0.04 µM.

Take `CC(=O)N1CCN(c2ccc(OCC3COC(Cn4ccnc4)(c4ccc(Cl)cc4Cl)O3)cc2)CC1` (centres unmarked) [Ketoconazole, ketoconazole]: the Kd in experiment [1] came out at 0.42 ± 0.08 µM; in experiment [2] it was 0.17 ± 0.04 µM; in experiment [3], 0.43 ± 0.08 µM; in experiment [4], 0.54 ± 0.07 µM; in experiment [5], 0.66 ± 0.13 µM.

Take `CC(C)=CCC[C@@H](C)[C@H]1CC[C@@]2(C)C3=C(CC[C@]12C)[C@@]1(C)CC[C@H](O)C(C)(C)[C@@H]1CC3` [lanosterol, Lanosterol]: the Kd in experiment [1] was 6.7 µM.
